In patent US9751885B2, “Cyclopropanamine compound and use thereof” (Takeda Pharmaceutical Company Limited, priority 2012, dated 2017):
Structures can show the parent of a compound that is named as a salt. Where two headings read alike, the source gives them in different places.

How the values were obtained:
[1] = tested on: white blood cell number, red blood cell number, platelet number; assay: Evaluation of blood cell number in mouse; format: in vivo; settings: oral, Day 2 after administration
Description: Evaluation of Blood Cell Number in Mouse
(§1) Male ICR mice (hereinafter mice) were acclimated for at least one week in a rearing facility. The mice were raised in a rearing room with controlled temperature and humidity under a 12:12 hour light-dark cycle, and allowed free ingestion of feed and water.
The compounds were suspended in 0.5% methylcellulose/0.02% citric acid/distilled water and orally administered. All compounds were administered to the mice at a dose of 1 mg/kg, 10 mg/kg, 50 mg/kg or 100 mg/kg (body weight). On Day 2 after the administration of the compound, the whole blood was collected.
Using Sysmex XT-1800i (Sysmex Corporation), the white blood cell number, red blood cell number, and platelet number in the collected whole blood per unit volume were measured. The influence of each compound on each blood cell number was determined by comparing the number with the mean of each blood cell number of the mouse without administration of the compound (control group), and the numerical value of each blood cell number of a mouse with the administration of the compound is shown in percentage. percentage (%) of blood cell number of compound administration group as compared to control group=(mean blood cell number of compound administration group mean blood cell number of compound non-administration group)×100

[2] = Evaluation of hippocampal distribution in mouse; format: in vivo; settings: male ICR mice, 10 mg/kg oral; for concentration at 0.5 h / Kp at 0.5 h: 0.5 hr after administration; for Kp at 0.5 h / Kp at 1 h: hippocampus/plasma, read-out: hippocampus/plasma concentration ratio (mean); for concentration at 1 h / Kp at 1 h: 1 hr after administration
Description: Evaluation of Hippocampal Distribution in Mouse
as §1
The compounds were suspended in 0.5% methylcellulose/0.02% citric acid/distilled water and orally administered. All compounds were administered to the mice at a dose of 10 mg/kg (body weight).
Blood samples were collected at 0.5 hr, or 1 hr, or 1.5 hr from compound administration, and the hippocampus was isolated simultaneously. The plasma concentration and hippocampus concentration of each test compound were measured by the LC/MS/MS method, the ratio (hippocampus/plasma concentration ratio) was calculated, and distribution into hippocampus was evaluated.

[3] = hippocampus, read-out: hippocampus concentration (mean)
[4] = plasma, read-out: plasma concentration (mean)

| SMILES | platelet number, percentage of compound administration group compared to control group, mean ([1]; 10 mg/kg) | red blood cell number, percentage of compound administration group compared to control group, mean ([1]; 10 mg/kg) | white blood cell number, percentage of compound administration group compared to control group, mean ([1]; 10 mg/kg) | platelet number, percentage of compound administration group compared to control group, mean ([1]; 100 mg/kg) | red blood cell number, percentage of compound administration group compared to control group, mean ([1]; 100 mg/kg) | white blood cell number, percentage of compound administration group compared to control group, mean ([1]; 100 mg/kg) | concentration at 0.5 h [2, 3] | Kp at 0.5 h [2] | concentration at 0.5 h [2, 4] | concentration at 1 h [2, 3] | Kp at 1 h [2] | concentration at 1 h [2, 4] |
| --- | --- | --- | --- | --- | --- | --- | --- | --- | --- | --- | --- | --- |
| Cc1cc(NC(=O)c2cccc([C@@H]3C[C@H]3NCC3CC3)c2)n(C)n1 (relative stereo) [Example 107, 3-(trans-2-((cyclopropylmethyl)amino)cyclopropyl)-N-(1,3-dimethyl-1H-pyrazol-5-yl)benzamide dihydrochloride] | 95.4% | 98.4% | 86.6% | 91.1% | 102.2% | 132.7% | 242 ng/g | 0.09 | 2560 ng/mL |  |  |  |
| Cc1nnc(NC(=O)c2cccc([C@@H]3C[C@H]3NCC3CCOCC3)c2)s1 (relative stereo) [Example 112, N-(5-methyl-1,3,4-thiadiazol-2-yl)-3-(trans-2-((tetrahydro-2H-pyran-4-ylmethyl)amino)cyclopropyl)benzamide dihydrochloride] | 92.8% | 99.4% | 112.0% | 86.3% | 102.0% | 136.1% | 614 ng/g | 0.36 | 1710 ng/mL |  |  |  |
| Cc1nnc(NC(=O)c2cccc([C@@H]3C[C@H]3NC3CCC(F)(F)CC3)c2)s1 (relative stereo) [Example 167, 3-(trans-2-((4,4-difluorocyclohexyl)amino)cyclopropyl)-N-(5-methyl-1,3,4-thiadiazol-2-yl)benzamide hydrochloride] | 105.3% | 102.5% | 86.4% | 103.2% | 102.4% | 68.2% |  |  |  | 915 ng/g | 0.74 | 1230 ng/mL |
| Cn1cc(NC(=O)c2cccc([C@@H]3C[C@H]3NC3CCC3)c2)cn1 (relative stereo) [Example 169, 3-(trans-2-(cyclobutylamino)cyclopropyl)-N-(1-methyl-1H-pyrazol-4-yl)benzamide dihydrochloride] | 102.2% | 105.1% | 99.1% | 100.7% | 103.7% | 109.2% |  |  |  | 396 ng/g | 0.56 | 707 ng/mL |
| Cn1cc(NC(=O)c2cccc([C@@H]3C[C@H]3NC3CCN(CC(F)(F)F)CC3)c2)cn1 (relative stereo) [Example 171, N-(1-methyl-1H-pyrazol-4-yl)-3-(trans-2-((1-(2,2,2-trifluoroethyl)piperidin-4-yl)amino)cyclopropyl)benzamide trihydrochloride] | 114.6% | 98.5% | 133.3% | 104.8% | 98.9% | 133.9% | 266 ng/g | 0.2 | 1310 ng/mL |  |  |  |

The next lines start with the values.

| platelet number, percentage of compound administration group compared to control group, mean ([1]; 10 mg/kg) | red blood cell number, percentage of compound administration group compared to control group, mean ([1]; 10 mg/kg) | white blood cell number, percentage of compound administration group compared to control group, mean ([1]; 10 mg/kg) | platelet number, percentage of compound administration group compared to control group, mean ([1]; 100 mg/kg) | red blood cell number, percentage of compound administration group compared to control group, mean ([1]; 100 mg/kg) | white blood cell number, percentage of compound administration group compared to control group, mean ([1]; 100 mg/kg) | concentration at 0.5 h [2, 3] | Kp at 0.5 h [2] | concentration at 0.5 h [2, 4] | concentration at 1 h [2, 3] | Kp at 1 h [2] | concentration at 1 h [2, 4] | SMILES |
| --- | --- | --- | --- | --- | --- | --- | --- | --- | --- | --- | --- | --- |
| 98.1% | 92.9% | 99.4% | 91.0% | 98.8% | 104.8% | 207 ng/g | 0.24 | 889 ng/mL |  |  |  | O=C(NC1CCOCC1)c1cccc([C@@H]2C[C@H]2NCC2CC2)c1 (relative stereo) [Example 100, 3-(trans-2-((cyclopropylmethyl)amino)cyclopropyl)-N-(tetrahydro-2H-pyran-4-yl)benzamide hydrochloride] |
| 97.7% | 99.5% | 107.0% | 94.7% | 104.9% | 116.8% |  |  |  | 482 ng/g | 1.84 | 268 ng/mL | O=C(NC1CCC(F)(F)CC1)c1cccc([C@@H]2C[C@H]2NCC2CC2)c1 (relative stereo) [Example 102, 3-(trans-2-((cyclopropylmethyl)amino)cyclopropyl)-N-(4,4-difluorocyclohexyl)benzamide hydrochloride] |
| 101.2% | 98.7% | 136.9% | 98.4% | 99.1% | 97.9% | 1300 ng/g | 1.59 | 823 ng/mL |  |  |  | O=C(NC1CCOCC1)c1cc([C@@H]2C[C@H]2NCC2CC2)ccc1F (relative stereo) [Example 111, 5-(trans-2-((cyclopropylmethyl)amino)cyclopropyl)-2-fluoro-N-(tetrahydro-2H-pyran-4-yl)benzamide hydrochloride] |
| 97.9% | 95.4% | 97.4% | 93.7% | 100.2% | 100.6% |  |  |  | 1280 ng/g |  | 1250 ng/mL | Cc1nnc(NC(=O)c2cccc([C@@H]3C[C@H]3NC3CCC3)c2)s1 (relative stereo) [Example 174, 3-(trans-2-(cyclobutylamino)cyclopropyl)-N-(5-methyl-1,3,4-thiadiazol-2-yl)benzamide hydrochloride] |
| 90.2% | 98.5% | 93.2% | 85.2% | 98.9% | 84.5% | 546 ng/g | 0.52 | 1050 ng/mL |  |  |  | O=C(NC1CCOCC1)c1cccc([C@@H]2C[C@H]2NC2CCC(F)(F)CC2)c1 (relative stereo) [Example 178, 3-(trans-2-((4,4-difluorocyclohexyl)amino)cyclopropyl)-N-(tetrahydro-2H-pyran-4-yl)benzamide hydrochloride] |
